# Data reported in patent US20100280061A1, “NOVEL ANALGESIC THAT BINDS FILAMIN A” (priority 2009, published 2010).
# Key:
# mu opiate receptor (MOR) = target: T1, mu opiate receptor (MOR) (Rattus norvegicus, UniProt P33535); assay: [35S]GTPγS binding assay using striatal membranes (MOR agonist activity); assay type: biochemical; parameters: MOR agonist activity, [35S]GTPγS binding to Gαo, 0.1 μM / MOR agonist activity, [35S]GTPγS binding to Gαo, 1 μM / MOR agonist activity, [35S]GTPγS binding to Gαo, 1 μM + BFNA: reference not given here; conditions: for MOR agonist activity, [35S]GTPγS binding to Gαo, 0.1 μM: 0.1 μM compound; for MOR agonist activity, [35S]GTPγS binding to Gαo, 0.1 μM / MOR agonist activity, [35S]GTPγS binding to Gαo, 1 μM: striatal membranes; for MOR agonist activity, [35S]GTPγS binding to Gαo, 1 μM + BFNA: 1 μM compound + 1 μM β-funaltrexamine; for MOR agonist activity, [35S]GTPγS binding to Gαo, 1 μM: 1 μM compound
# T1 construct: from tissue; host or cells: striatal tissue (membrane preparation)
# Experimental: To assess the mu opiate receptor (MOR) agonist activity of positive compounds from the FLNA screening, compounds were tested in a [^35S]GTPγS binding assay using striatal membranes. Our previous study has shown that in striatal membranes, activation of MOR leads to an increase in [^35S]GTPγS binding to Gαo (Wang et al., 2005 Neuroscience 135:247-261).
# Striatal tissue was homogenized in 10 volumes of ice cold 25 mM HEPES buffer, pH 7.4, which contained 1 mM EGTA, 100 mM sucrose, 50 μg/ml leupeptin, 0.04 mM PMSF, 2 μg/ml soybean trypsin inhibitor and 0.2% 2-mercaptoethanol. The homogenates were centrifuged at 800×g for 5 minutes and the supernatants were centrifuged at 49,000×g for 20 minutes. The resulting pellets were suspended in 10 volume of reaction buffer, which contained 25 mM HEPES, pH 7.5, 100 mM NaCl, 50 μg/ml leupeptin, 2 μg/ml soybean trypsin inhibitor, 0.04 mM PMSF and 0.02% […].
# The resultant striatal membrane preparation (200 μg) was admixed and maintained (incubated) at 30° C. for 5 minutes in reaction buffer as above that additionally contained 1 mM MgCl2 and 0.5 nM [^35S]GTPγS (0.1 μCi/assay, PerkinElmer Life and Analytical Sciences) in a total volume of 250 μl and continued for 5 minutes in the absence or presence of 0.1-10 μM of an assayed compound of interest. The reaction was terminated by dilution with 750 μl of ice-cold reaction buffer that contained 20 mM MgCl2 and 1 mM EGTA and immediate centrifugation at 16,000×g for 5 minutes.
# The resulting pellet was solubilized by sonicating for 10 seconds in 0.5 ml of immunoprecipitation buffer containing 0.5% digitonin, 0.2% sodium cholate and 0.5% NP-40. Normal rabbit serum (1 μl) was added to 1 ml of lysate and incubated at 25° C. for 30 minutes. Nonspecific immune complexes were removed by incubation with 25 μl of protein A/G-conjugated agarose beads at 25° C. for 30 minutes followed by centrifugation at 5,000×g at 4° C. for 5 minutes. The supernatant was divided and separately incubated at 25° C. for 30 minutes with antibodies raised against Gαo proteins (1:1,000 dilutions).
# The immunocomplexes so formed were collected by incubation at 25° C. for 30 minutes with 40 μl of agarose-conjugated protein A/G beads and centrifugation at 5,000×g at 4° C. for 5 minutes. The pellet was washed and suspended in buffer containing 50 mM Tris-HCl, pH 8.0, and 1% NP-40. The radioactivity in the suspension was determined by liquid scintillation spectrometry. […] DAMGO (H-Tyr-D-Ala-Gly-N-MePhe-Gly-OH; 1 or 10 μM) was used as a positive control.
# [1] = target: Bn-VAKGL pentapeptide of filamin A (FLNA) (Homo sapiens, UniProt P21333); assay: FITC-NLX-based FLNA screening assay (FLNA peptide binding assay); conditions: for Percent inhibition of FITC-NLX binding, 0.01 μM: 0.01 μM compound; for Percent inhibition of FITC-NLX binding, 0.01 μM / Percent inhibition of FITC-NLX binding, 0.1 μM / Percent inhibition of FITC-NLX binding, 1 μM: 10 nM FITC-NLX; for Percent inhibition of FITC-NLX binding, 0.1 μM: 0.1 μM compound; for Percent inhibition of FITC-NLX binding, 1 μM: 1 μM compound
# Experimental: The final assay volume is 100 μl.
# Compounds are tested in triplicate or quadruplicate.
# T1 sequence (P33535 whole entry): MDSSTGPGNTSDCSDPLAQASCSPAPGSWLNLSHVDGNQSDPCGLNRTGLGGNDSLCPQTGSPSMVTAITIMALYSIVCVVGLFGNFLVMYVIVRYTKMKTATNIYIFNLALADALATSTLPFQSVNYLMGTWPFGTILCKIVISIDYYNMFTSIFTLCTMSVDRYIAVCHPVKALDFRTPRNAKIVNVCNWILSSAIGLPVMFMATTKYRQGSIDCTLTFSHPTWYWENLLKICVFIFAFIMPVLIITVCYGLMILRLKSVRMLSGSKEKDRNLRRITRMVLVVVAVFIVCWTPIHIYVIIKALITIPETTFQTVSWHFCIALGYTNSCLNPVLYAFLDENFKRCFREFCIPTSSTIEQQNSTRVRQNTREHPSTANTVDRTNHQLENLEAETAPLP
Compound,"MOR agonist activity, [35S]GTPγS binding to Gαo, 0.1 μM (mu opiate receptor (MOR)) [%]","MOR agonist activity, [35S]GTPγS binding to Gαo, 1 μM + BFNA (mu opiate receptor (MOR)) [%]","MOR agonist activity, [35S]GTPγS binding to Gαo, 1 μM (mu opiate receptor (MOR)) [%]","Percent inhibition of FITC-NLX binding, 0.01 μM [1] [%]","Percent inhibition of FITC-NLX binding, 0.1 μM [1] [%]","Percent inhibition of FITC-NLX binding, 1 μM [1] [%]","inhibition at 0.01 µM ([1]; read-out: Percent inhibition of FITC-NLX binding, 0.01 μM) [%]","inhibition at 0.1 µM ([1]; read-out: Percent inhibition of FITC-NLX binding, 0.1 μM) [%]","inhibition at 1 µM ([1]; read-out: Percent inhibition of FITC-NLX binding, 1 μM) [%]"
COc1c2c(cc3c1C(CC(=O)/C=C/c1ccc(Cl)cc1)[N+](C)(C)CC3)OCO2 (stereo not drawn) [B0019],101.0,81.4,256.5,34.3,41.0,49.0,–,–,–
COc1ccc(CCC(O)CC2c3c(cc4c(c3OC)OCO4)CC[N+]2(C)C)cc1 (stereo not drawn) [B0049],181.6,133.2,364.0,32.2,40.1,47.1,–,–,–
COc1ccccc1C(=O)CC1c2c(cc3c(c2OC)OCO3)CC[N+]1(C)C (stereo not drawn) [B0025],159.6,137.7,234.6,41.7,49.4,56.6,–,–,–
COc1ccccc1CC(O)CC1c2c(cc3c(c2OC)OCO3)CC[N+]1(C)C.[I-] (stereo not drawn) [B0032],221.1,15.6,297.7,45.1,51.3,48.9,–,–,–
COc1c2c(cc3c1C(CC(=O)Cc1ccccc1C)[N+](C)(C)CC3)OCO2 (stereo not drawn) [B0031],210.8,28.8,272.0,36.2,44.2,50.5,–,–,–
COc1c2c(cc3c1C(CC(=O)c1ccncc1)[N+](C)(C)CC3)OCO2 (stereo not drawn) [B0005],89.2,45.1,110.4,31.8,34.8,41.7,–,–,–
COc1c2c(cc3c1C(CC(=O)c1ccc(F)c(F)c1)[N+](C)(C)CC3)OCO2 (stereo not drawn) [B0003],103.0,18.6,131.1,–,–,–,45.4,52.9,63.5
COc1ccc(C(=O)CC2c3c(cc4c(c3OC)OCO4)CC[N+]2(C)C)c(F)c1.[I-] (stereo not drawn) [B0027],140.9,21.6,266.9,40.2,46.7,49.8,–,–,–
COc1c2c(cc3c1C(CC(=O)CCc1ccc(Cl)cc1)[N+](C)(C)CC3)OCO2 (stereo not drawn) [B0017],99.6,49.6,122.0,28.3,36.6,44.6,–,–,–
COc1ccc(C(=O)CC2c3c(cc4c(c3OC)OCO4)CC[N+]2(C)C)cc1OC.[I-] (stereo not drawn) [B0026],152.0,28.8,233.3,41.1,43.3,48.2,–,–,–
COc1ccccc1CC(O)CC1c2c(cc3c(c2OC)OCO3)CCN1C (stereo not drawn) [B0030],107.2,90.1,276.1,47.0,50.5,57.6,–,–,–
COc1ccccc1CCC(=O)CC1c2c(cc3c(c2OC)OCO3)CC[N+]1(C)C (stereo not drawn) [B0045],129.3,83.8,193.1,63.2,68.2,73.9,–,–,–
COc1cccc(CC(=O)CC2c3c(cc4c(c3OC)OCO4)CC[N+]2(C)C)c1OC (stereo not drawn) [B0038],147.5,117.1,205.3,41.2,50.1,57.0,–,–,–
CCOc1ccc(C(=O)CC2c3c(cc4c(c3OC)OCO4)CC[N+]2(C)C)cc1F (stereo not drawn) [B0020],51.6,24.9,181.6,38.1,45.5,50.6,–,–,–
COc1cc(C(=O)CC2c3c(cc4c(c3OC)OCO4)CC[N+]2(C)C)cc(OC)c1OC (stereo not drawn) [B0037],119.8,106.2,186.0,47.4,53.0,52.4,–,–,–
COc1ccc(CC(=O)CC2c3c(cc4c(c3OC)OCO4)CC[N+]2(C)C)c(OC)c1 (stereo not drawn) [B0029],171.9,17.6,210.3,33.4,42.9,50.2,–,–,–
COc1ccc(CCC(=O)CC2c3c(cc4c(c3OC)OCO4)CC[N+]2(C)C)c(OC)c1 (stereo not drawn) [B0043],74.8,166.4,248.1,30.8,39.2,46.8,–,–,–
COCOc1ccc(C(=O)CC2c3c(cc4c(c3OC)OCO4)CC[N+]2(C)C)cc1C.[I-] (stereo not drawn) [B0041],61.6,41.9,109.3,44.0,46.8,52.8,–,–,–
COc1ccc(C(=O)CC2c3c(cc4c(c3OC)OCO4)CC[N+]2(C)C)cc1C.[I-] (stereo not drawn) [B0021],126.9,42.9,256.4,32.5,43.1,47.6,–,–,–
